Laboratory results taken from patent US9593146B2, “CD44v6-derived peptides for treating metastasizing cancer” (AMCURE GMBH, priority 2012, dated 2017).

Key:
BSp73ASs6 cells = test: Apoptosis in established lung metastases (cleaved Caspase-3, cleaved Caspase-8), BSp73ASs6 rat model; format: in vivo; conditions: cleaved caspase-8 staining
Procedure: 7 μm thick paraffin sections were deparaffinized and rehydrated. For P-Met staining antigen unmasking was achieved by boiling the slides in 1 mM EDTA pH 8.0 followed by incubation for 15 minutes at a sub-boiling temperature, for CD31 staining the sections were treated with Proteinase K (8 μg/ml) for 10 min at 37° C. For immunofluorescence staining of P-Met, unspecific binding was blocked with 5% goat serum (DAKO, Glostrup, Denmark) (diluted in 1×PBS/0.3% Triton X-100) for 60 minutes. In the case of immunohistochemistry, endogenous peroxidases were at first blocked with 3% H2O2 in PBS followed by incubation with biotin blocking system (Dako, Glostrup, Denmark) and then unspecific binding was inhibited by incubation with 5% FCS in PBS. The sections were incubated with the P-Met antibody (D26, dilution 1:50 in 1×PBS/1% BSA/0.3% Triton X-100), Met antibody (C-28, dilution 1:50), GFP antibody (sc-101525, dilution 1:50) or CD31 antibody (5 μg/ml) over night or VFF18 (5 μg/ml) o/n at 4° C. After washing in PBS the sections were incubated with Alexa Fluor R 546 goat anti-rabbit (in case of immunofluorescence P-Met and Met staining, dilution 1:500) or a biotinylated secondary antibody (for immunohistochemical stainings rabbit anti-rat antibody for VFF18 and CD31, goat anti-rabbit for P-Met, cleaved Caspase-3 and cleaved Caspase-8 and rabbit anti-mouse for GFP, dilution 1:500) for 45 minutes. For DAB (3,3′-diaminobenzidine) staining the sections were treated with a streptavidin-peroxidase conjugate (Dako, Glostrup, Denmark) and developed with DAB substrate system (3,3′-diaminobenzidine; Biozol, Eching, Germany). For immunofluorescence DAPI was used for nuclear staining.
One hypothesis for the disappearance of metastases is that the peptides induce apoptosis of CD44v6-expressing metastatic cells in the secondary organs. In order to test this hypothesis, the experiment described above using the BSp73ASs6 cells was repeated. The cells were injected subcutaneously in syngeneic rats and the tumor was allowed to develop for three weeks. After that time the animals were separated in two groups of 10 animals that were injected either with the specific rat CD44v6 peptide or with the control peptide (mouse) every second day. One day following each injection of the peptide, the lungs of one animal were removed and apoptosis was measured using an antibody that detects the cleaved form of Caspase 3. […] Twelve days after injection of the CD44v6 peptide, less apoptosis was observed. […] From these experiments, it is concluded that the CD44v6 peptide induces apoptosis of metastatic cells.

HUVECs and HAOECs = test: Scratch closure assay, EC migration; format: cell-based, human; conditions: 24 hours
Procedure: FIG. 18: CD44v6 is required for EC migration. HUVECs and HAOECs were grown to confluence and a wound was made into the cell monolayer with a sterile pipette tip. After washing the cells were incubated with the antibody against CD44v6, the CD44v6 peptide (human v614mer) or the control peptide as indicated. The ligands HGF, VEGF-A165 or VEGF-A121 were added and migration of the ECs was analysed after 24 hours. The numbers indicate the percentage of free area in the scratch area quantified by the computer program ImageJ.
In this assay the requirement for CD44v6 for cell migration was tested. In a scratch closure assay migration of either vein or artery ECs was tested. These cells were grown to confluence and a scratch was made into the confluent monolayer using a sterile pipette-tip. The cells lining the scratch border started to migrate into this empty space in order to close the gap. In presence of either HGF, VEGF-A165, or VEGF-A121 the cells migrated faster than in absence of the ligands and the scratch was closed within one day.

L3.6pl cells = test: Human orthotopic model of pancreatic cancer, L3.6pl cells in nude mice; format: in vivo
Procedure: In the case of the human orthotopic model, L3.6pl pancreatic carcinoma cells (passage 24-26) were suspended in Hank's balanced salt solution (Invitrogen, Karlsruhe, Germany) after trypsinization. The cells were injected orthotopically in the pancreas of male nude mice as described (Bruns C J et al. (1999) Neoplasia 1(1):50-62). Two groups of 15 mice each were injected i.p. 7 days later with either the human v6 peptide respectively rat control peptide (20 μg). For all experiments described and depicted herein either the rat 14mer control peptide or the human 14mer peptide were used. All experiments were then repeated with the rat 5mer control peptide or the human 5mer peptide (N-R-W-H-E, SEQ ID NO: 2). […] The injection was repeated three times per week for 21 days. Two days after the last treatment the animals were killed. […]
A comparison of different CD44v6 peptide derivatives was performed in animals bearing a orthotopic L3.6pl tumor. 10 groups of 5 animals each received a dose of 20 μg peptide per injection three times per week for 3 weeks with the compounds listed in Table 4. Three weeks after starting the treatment the animals were sacrificed and analyzed for macroscopic metastases and tumor volume.

Met = test: HGF induced activation of Met and Erk in endothelial cells; format: cell-based, human; conditions: HUVEC, HAOEC and HCMEC; added before induction with HGF
Procedure: FIG. 12: CD44v6 is required for activation of Met and downstream signaling in several ECs. Different ECs (HUVEC, HAOEC and HCMEC) were serum starved and incubated with several reagents (aCD44v6, v6 14mer and the controls IgG and ctrl pep). The growth factor HGF was added and the cells were lysed. The proteins in the cell lysates were separated by SDS-PAGE and subjected to Western blot analysis. Activation of Met and of its downstream target Erk was detected by means of phospho-specific antibodies that detect phosphorylated forms of Met and Erk. In order to check equal loading of the different samples the membrane was incubated with stripping solution and reprobed with antibodies recognising all Met and Erk proteins. The numbers indicate the fold induction as calculated with the computer programme ImageJ.
When these ECs were treated with HGF, the receptor tyrosine kinase Met was phosphorylated and signaling to Erk—a downstream target of Met—was promoted (FIG. 12). The contribution of CD44v6 to Met signaling in these cells was analysed using different tools.

[1] = 20 μg i.p. three times per week for three weeks, start 7 days after implantation

KEQWFGNRWHEGYR [human 14mer, human CD44v6 14mer peptide]
activation of caspase-8 in lung metastases (BSp73ASs6 cells): A kinetic of activation of caspase-8 similar to the one obtained for caspase-3
EC migration induced by HGF, VEGF-A165 or VEGF-A121 (HUVECs and HAOECs): reduced to basal levels
metastatic spreading at 10 μg (L3.6pl cells; 10 μg per injection, three times per week for 3 weeks): complete inhibition of metastatic spreading
tumor angiogenesis (vessel number and vessel size, CD31) (L3.6pl cells; 20 μg i.p. three times per week for three weeks): decreased angiogenesis
Met activation in the tumor (phospho-Met immunofluorescence) (L3.6pl cells; [1]): completely repressed Met activation
outgrowth of the primary tumor in the pancreas (L3.6pl cells; [1]): strongly repressed
metastasis formation (liver) (L3.6pl cells; 20 μg i.p. three times per week for three weeks, start 7 days after implantation, listed as SEQ ID No.: 6): capable of inhibiting metastasis
metastasis formation (liver) (L3.6pl cells; 20 μg i.p. three times per week for three weeks, start 7 days after implantation, listed as human-specific peptide): completely inhibited metastasis formation within the liver
reduction of tumor size, ranking (side-by-side comparison) (L3.6pl cells; 20 μg per injection three times per week for 3 weeks (FIG. 23A)): strongest reduction of tumor size
variability in the individual tumor size within the group (L3.6pl cells; 20 μg per injection three times per week for 3 weeks (FIG. 23B)): low variability
metastatic spreading to the liver (side-by-side comparison) (L3.6pl cells; 20 μg per injection three times per week for 3 weeks (FIG. 24)): complete inhibition of metastasis
tumor growth compared to the control peptide (side-by-side comparison) (L3.6pl cells; 20 μg per injection three times per week for 3 weeks, 5 animals per group): significant reduction in tumor growth
liver metastases at 0.2 and 2 μg (L3.6pl cells; 0.2 and 2 μg per injection, three times per week for 3 weeks): showed liver metastases but the average number of metastases per animal was reduced
size / growth of the primary tumor (dose reduction study) (L3.6pl cells; three injections per week for 3 weeks, compared to control groups (FIG. 22C)): significant decrease of the size of the primary tumor
activation of Met and of its downstream target Erk (Met): able to prevent activation of Met and of its downstream target Erk
